The source of these data is US10955352B2, “Method for assessing a state of a living cell” (Agency for Science, Technology and Research, priority 2016, dated 2021).

This experiment deals with HeLa cells. As to the kind of experiment: SERS detection and quantification of sialic acid on single living HeLa cells with DBA tag (HC-PCF). Type of experiment: cell-based. Here is the method: HeLa cells were cultured in Dulbecco's modified eagle medium (DMEM) with 1% penicillin streptomycin (Gibco) and 10% fetal bovine serum (Gibco) in the dark with 5% CO2 and 37° C. until they were confluent. The cells were then harvested by adding 1×EDTA trypsin of appropriate volume for 4 min, followed by addition of DMEM of double that volume to neutralize the trypsin. The harvested cells were centrifuged at 1,500 rpm for 3 mins. The supernatant was removed and the cells were suspended with DMEM to achieve a cell concentration of 5000 cells/ml. Two milliliter of cell suspension was seeded per well in a six-well plate and allowed to grow for 48 hours.
After incubation, DMEM was removed from each well and the adhered cells were rinsed lightly with 1×PBS which was subsequently removed. Four wells were used in our experiment. In order to reduce the probability of DBA binding onto sites of sialic acid on the surface of the cell membrane, thus mimicking a cell with lowered sialic acid level, 10 mM of phenyl-boronic acid (PBA) (Sigma Aldrich) dissolved in DMEM and 1% DMSO (Merck Millipore) were added to one well (Well A) and left to incubate for 24 hours. […]
Post-incubation washing was performed for all the wells and 10 mM of DBA (Sigma Aldrich) dissolved in DMEM and 1% DMSO was added into wells A, B and C, with incubation time of 4 hours. […] Supernatant were removed after centrifugation and the cells are ready for SERS sample preparation. […]
SERS spectra were recorded using a Raman microscope system (Renishaw InVia) with a 633 nm excitation laser and equipped with a grating (spectral resolution of about 1.8 cm^−1). […]
In order to calculate the amount of sialic acid on cell for Sialic acid and (+)Sialic acid samples, intensity of the 2,000 cm^−1 peak was obtained from the SERS measurement (FIG. 10A). […] The number of sialic acid molecules may be quantified by estimating the amount of DBA molecules from the trend line as the binding between DBA molecule to the sialic acid molecule is one by one. […]

For the compound `OB(O)c1ccccc1` [PBA, phenyl-boronic acid], the “2,000 cm^-1 peak in Raman spectrum (DBA binding to sialic acid) after pre-treatment” value (HeLa cells, 10 mM PBA 24 hours, then 10 mM DBA 4 hours) is “negligible presence of that peak”.

For `C[C@]12C=CC(=O)C=C1CC[C@@H]1[C@@H]2[C@@H](O)C[C@@]2(C)[C@H]1CC[C@]2(O)C(=O)CO` [prednisolone], the “calculated sialic acid amount on a single HeLa cell” value (5 μM prednisolone 72 hours, then 10 mM DBA 4 hours, estimated from DBA calibration curve of 2,000 cm^-1 peak) is 6.782 fmol. Also, the “intensity at 2,000 cm^-1 (DBA alkyne peak, sialic acid expression) versus positive control” value (HeLa cells, 5 μM prednisolone 72 hours, then DBA) is recorded as “higher than that of the positive control”.
